We go through 2 compounds from paper PMC4055595, “Pharmacokinetic Compatibility of Ginsenosides and Schisandra Lignans in Shengmai-san: From the Perspective of P-Glycoprotein” (PLoS ONE, 2014).

Each structure is given as a SMILES string. Where two headings read alike, the source gives them in different places.

A short description of data set [1]: Rat plasma pharmacokinetics after 10-day vehicle/SLE and digoxin or GE. The data set is classed as in vivo, Sprague-Dawley rats. To be noted: rats; for AUC / Cmax / AUC(0-inf) / MRT inf / Tmax / half-life: female, Sprague-Dawley, rat, plasma, po; for AUC / Cmax / AUC(0-inf) / MRT inf / Tmax / half-life / Cl_F_obs / AUCINF_obs: day 11 digoxin 0.5 mg/kg or GE 120 mg/kg ig; for AUC(0-inf): read-out: AUCINF_obs; for MRT inf: read-out: MRTINF_obs; for Tmax: read-out: Tmax; for half-life: read-out: t1/2 (converted). The protocol:
This study was carried out in strict accordance with the recommendations in the Guide for the Care and Use of Laboratory Animals of the National Institutes of Health. The protocol was approved by the Committee on the Ethics of Animal Experiments of the China Pharmaceutical University. All surgery was performed under sodium pentobarbital anesthesia, and all efforts were made to minimize suffering. […] The rats were fed with standard laboratory food and water and fasted overnight but with free access to water before the test. To evaluate the effect of long-term treatment with SLE on the pharmacokinetics of ginsenosides, 24 rats were also divided into four groups (group I∼ group IV) with 6 animals each. […] On the 11th day, digoxin was administered intragastrically to rats (group I and group II) at a single dose of 0.5 mg/kg, GE was administered intragastrically to rats (group III and group IV) at a single dose of 120 mg/kg. […] Plasma was obtained by centrifugation at 5000 g for 10 min and stored at −20°C before analysis. The plasma / cell samples were extracted using a liquid–liquid extraction technique. To each tube containing 100 µL plasma, 10 µL internal standard (digoxin, 1.0 µg/mL) and 1.0 mL of n-butanol were added. The mixture was then vortex-extracted for 2 min, and centrifuged for 10 min at 10,000 g. […] The plasma concentration-time curves of ginsenosides in rats were obtained by plotting the mean plasma concentrations versus time. Pharmacokinetic parameters were calculated using the WinNonlin 6.3 program (Pharsight Inc., Mountain View, CA). The elimination half-life (t 1/2) value was calculated as 0.693/β, where β is the elimination rate constant calculated from the terminal linear portion of the log plasma concentration-time curve. The total areas under the plasma concentration- time curve from time 0 to the last quantifiable time point (AUC0-t) and from time 0 to infinity (AUC0-∞) were calculated using the log trapezoidal rule. [drawing 3] The maximum plasma concentrations (C max) for ginsenosides were obtained by visual inspection of the plasma concentration-time curve, whereas the initial drug concentration (the extrapolated concentration at zero time) of the drug after intravenous injection was calculated by back-extrapolation of the plasma concentration-time curve to the y-axis.

Data set [2] relates to LLC-PK1 cells (lacking P-gp). The data set can be described thus: Transport of digoxin and ginsenosides across LLC-PK1 cell monolayers. The data set is classed as in vitro ADME. To be noted: for Effect of SLE on transport (AP→BL, BL→AP): SLE 2.0 and 10.0 µg/mL. The protocol:
(§1) LLC-PK1 cells, a cell line lacking P-gp, and the derived cell line L-MDR1, which over-express human MDR1-encoded P-gp, were grown in minimum essential medium with supplements at 37°C, 5% CO2, and 95% humidity. LLC-PK1 and L-MDR1 cells were seeded at a density of 12×10^6 cells per 150-cm^2 flask and grown for 7 days in medium 199 supplemented with 2 mM glutamine, 10% fetal bovine serum, 10 mg/500 mL of streptomycin, and 10,000 IU/500 mL of penicillin. To ensure a constant expression level of transport protein, L-MDR1 cells were grown in the presence of 640 nM vincristine. Cells were grown as monolayer on polycarbonate membrane filters (Transwell; Costar Corporation, Cambridge, MA) as outlined previously. Transepithelial resistance was measured in each well using a Millicell ERS ohmmeter (Millipore, Bedford, MA); wells registering a resistance of 200 ohms or greater, after correcting for the resistance obtained in control blank wells, were used in the transport experiments.
(§2) The LLC-PK1 and L-MDR1 cells were washed with warm Hank's balanced salt solution HBSS (pH 7.4) twice before transport experiment. HBSS containing verapamil (10 µM), SLE (2.0 and 10.0 µg/mL) or blank HBSS (control) was then loaded into both apical and basolateral chambers. After incubation at 37°C for 1.5 h, GE (100 µg/mL) was added to either the apical or basolateral side to evaluate the transport in absorptive and secretive directions, respectively. The cell monolayer was then incubated for another 2 h. Finally, the concentrations of ginsenosides were determined by LC/MS. All experiments were conducted in triplicate.
(§3) For the transport assay, the apparent permeability (P app, cm/s) in each direction (A→B and B→A) was calculated as follows, where A is the surface area of the membrane inserts (0.0804 cm^2), C 0 is the initial concentration of the compound applied in the donor compartment (2 µM), and △Q is the amount (micromoles) of compound transported over time △t (5 h = 18,000 s): [drawing 1]
(§4) The efflux ratio (ER) was a dimensionless number calculated as the ratio of the apparent permeability in the B→A direction divided by the apparent permeability in the A→B direction. [drawing 2]

Data set [3] deals with human MDR1-encoded P-gp (L-MDR1 cells) (Homo sapiens, UniProt P08183). Nature of the data set: Transport of digoxin and ginsenosides across L-MDR1 cell monolayers (efflux ratio). It counts as in vitro ADME. As for the experimental part: as §1, §2, §3, §4
The target of a further data set is P-gp (MDR1) (Homo sapiens, UniProt P08183). The description is as above. The settings on record: human, read-out: Efflux ratio (Papp BL-AP / Papp AP-BL). It counts as in vitro ADME. As for the experimental part: as §1, §2, §3, §4
Setting [4] is: SLE 500 mg/kg ig once a day for 10 days.
Setting [5] is: control: vehicle once a day for 10 days.

human MDR1-encoded P-gp (L-MDR1 cells), sequence (P08183 whole entry): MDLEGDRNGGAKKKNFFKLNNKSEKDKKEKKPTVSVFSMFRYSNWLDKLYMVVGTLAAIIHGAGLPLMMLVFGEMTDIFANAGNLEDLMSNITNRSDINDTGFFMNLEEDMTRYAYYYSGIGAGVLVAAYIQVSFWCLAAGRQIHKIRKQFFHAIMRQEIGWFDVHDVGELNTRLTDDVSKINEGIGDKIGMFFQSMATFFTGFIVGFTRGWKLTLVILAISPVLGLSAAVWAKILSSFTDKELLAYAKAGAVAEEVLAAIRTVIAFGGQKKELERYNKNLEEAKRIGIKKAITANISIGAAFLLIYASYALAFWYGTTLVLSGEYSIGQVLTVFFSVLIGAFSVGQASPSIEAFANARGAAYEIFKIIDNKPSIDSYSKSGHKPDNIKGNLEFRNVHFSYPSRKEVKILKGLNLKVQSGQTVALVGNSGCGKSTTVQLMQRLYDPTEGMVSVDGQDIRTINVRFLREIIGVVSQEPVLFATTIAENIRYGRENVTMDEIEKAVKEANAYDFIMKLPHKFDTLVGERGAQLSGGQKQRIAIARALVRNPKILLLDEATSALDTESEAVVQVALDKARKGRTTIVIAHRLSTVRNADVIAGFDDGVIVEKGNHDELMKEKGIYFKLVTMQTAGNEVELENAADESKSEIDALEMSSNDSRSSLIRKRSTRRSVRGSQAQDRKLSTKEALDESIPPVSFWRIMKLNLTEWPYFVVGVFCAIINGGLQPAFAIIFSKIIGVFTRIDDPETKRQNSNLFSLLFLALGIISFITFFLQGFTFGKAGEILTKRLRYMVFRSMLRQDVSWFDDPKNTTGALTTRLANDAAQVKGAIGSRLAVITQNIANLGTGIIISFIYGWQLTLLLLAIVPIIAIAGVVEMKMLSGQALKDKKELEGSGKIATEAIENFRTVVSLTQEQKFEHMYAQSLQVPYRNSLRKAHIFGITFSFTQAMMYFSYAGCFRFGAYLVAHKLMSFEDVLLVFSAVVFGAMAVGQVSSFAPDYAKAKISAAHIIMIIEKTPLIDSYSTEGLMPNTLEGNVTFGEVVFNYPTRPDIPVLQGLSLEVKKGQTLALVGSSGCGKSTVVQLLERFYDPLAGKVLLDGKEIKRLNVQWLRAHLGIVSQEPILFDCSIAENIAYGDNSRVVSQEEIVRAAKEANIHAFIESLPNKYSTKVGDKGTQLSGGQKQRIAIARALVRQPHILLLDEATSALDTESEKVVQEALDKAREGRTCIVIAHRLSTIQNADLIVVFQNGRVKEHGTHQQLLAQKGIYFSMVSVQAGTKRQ
P-gp (MDR1), sequence (P08183 whole entry): as above

Regarding `C[C@H]1O[C@@H](O[C@H]2[C@@H](O)C[C@H](O[C@H]3[C@@H](O)C[C@H](O[C@H]4CC[C@@]5(C)[C@H](CC[C@@H]6[C@@H]5C[C@@H](O)[C@]5(C)[C@@H](C7=CC(=O)OC7)CC[C@]65O)C4)O[C@@H]3C)O[C@@H]2C)C[C@H](O)[C@@H]1O` [Digoxin, digoxin, reference compound], in data set [1] (setting [4]), the exposure (AUC) is 123 ± 52.8 ng·h/mL, the Cmax was determined as 22.9 ± 13.7 ng/mL, the AUC(0-inf) turned out to be 127 ± 52.1 ng·h/mL and the MRT inf amounted to 4.78 ± 0.91 h. For the same compound, in data set [1] (setting [4]), the Tmax stood at 3.28 ± 1.73 h, the half-life was 2.19 ± 0.87 h and the Cl_F_obs came to 4.49 ± 1.75 L/h. Besides, in data set [1] (setting [5]), the AUC was 68.3 ± 26 ng·h/mL, the highest level (Cmax) was 11.8 ± 4.22 ng/mL, the AUC(0-inf) turned out to be 76.1 ± 30 ng·h/mL and the MRT inf stood at 5.65 ± 2.85 h. In data set [1] (setting [5]), the Tmax came to 2.33 ± 1.03 h, the half-life is 2.99 ± 2.32 h and the Cl_F_obs is 7.48 ± 3.09 L/h. For the same compound, the “Increase of AUC0-τ by 10 continuous days administration of SLE” value in data set [1] (SLE 500 mg/kg x 10 days vs vehicle, digoxin 0.5 mg/kg ig on day 11, P<0.05) is “about 2 fold”. Besides, the “Effect of verapamil on transport (efflux ratio)” value in data set [2] (10 µM verapamil) is recorded as “No transport difference”. In addition, the “Effect of SLE on transport (AP→BL, BL→AP)” value in data set [2] is reported as “No transport difference”. Moreover, the “Effect of verapamil on efflux ratio / Papp” value in data set [3] (L-MDR1 cells, 10 µM verapamil) is recorded as “significantly decrease of ER”. Moreover, in data set [3] (L-MDR1 cells, SLE 2.0 and 10.0 µg/mL), the “Effect of SLE on efflux ratio / transport” value is listed as “significantly decreased”. Also, the efflux ratio at 2 h, 100 µg/mL on P-gp (MDR1) (LLC-PK1, pH 7.4, L-MDR1 cells, control (absence of verapamil), GE 100 µg/mL, 2 h) was 26.2. Also, the efflux ratio at 2 h, 100 µg/mL on P-gp (MDR1) (LLC-PK1, pH 7.4, with verapamil 10 µM, L-MDR1 cells, presence of 10 µM verapamil) was 8.23.
In the case of `CC(C)=CCC[C@](C)(O[C@@H]1O[C@H](CO[C@@H]2OC[C@H](O)[C@H](O)[C@H]2O)[C@@H](O)[C@H](O)[C@H]1O)[C@H]1CC[C@]2(C)[C@@H]1[C@H](O)C[C@@H]1[C@@]3(C)CC[C@H](O[C@@H]4O[C@H](CO)[C@@H](O)[C@H](O)[C@H]4O[C@@H]4O[C@H](CO)[C@@H](O)[C@H](O)[C@H]4O)C(C)(C)[C@@H]3CC[C@]12C` [Rb2, ginsenoside Rb2], in data set [1] (setting [4]), the AUC amounted to 21300 ± 6520 ng·h/mL, the highest level (Cmax) was 586 ± 95.2 ng/mL, the AUC(0-inf) stood at 16600 ± 3510 ng·h/mL and the MRT inf came to 26.5 ± 6.58 h. For the same compound, in data set [1] (setting [4]), the time to peak (Tmax) was 10 ± 2.83 h, the half-life was 24.3 ± 8.42 h, the AUCINF_obs worked out at 22557 ± 6121 ng·h/mL and the Cl_F_obs turned out to be 0.0047 ± 0.0011 L/h. In addition, in data set [1] (setting [5]), the AUC is 15900 ± 3310 ng·h/mL, the highest level (Cmax) was 512 ± 77.8 ng/mL, the AUC(0-inf) came out at 22600 ± 6120 ng·h/mL and the MRT inf turned out to be 29.5 ± 2.61 h. In addition, in data set [1] (setting [5]), the half-life is 20.1 ± 3.66 h, the AUCINF_obs came out at 16600 ± 3511 ng·h/mL and the Cl_F_obs stood at 0.0062 ± 0.0013 L/h. Also, in data set [1] (SLE 500 mg/kg x 10 days vs vehicle, GE ig on day 11), the “Increase of AUC (AUC0-∞) by 10 continuous days administration of SLE” value is given as 1.33 fold. Further, the “Effect of SLE on transport (AP→BL, BL→AP)” value in data set [2] is recorded as “No transport difference”. Further, the P-gp substrate classification result in data set [3] (summary of transport/uptake in LLC-PK1, L-MDR1 and Caco-2 cells with verapamil) is “moderate P-gp substrates”.

A word on the AUC: it is concentration integrated over time. By Cmax is commonly meant the peak of the concentration-time curve. The term Tmax denotes the time from dosing to the highest level.
